Data taken from patent publication US20160090571A1, “CULTURE MEDIA AND METHODS FOR CULTURING MICROORGANISMS” (Orior, LLC, priority 2014, published 2016).

Test system: microorganism associated with Morgellons disease
Assay: Drug sensitivity / growth inhibition testing of the cultured microorganism
Format: cell-based
Details: for inhibitory effect on organism growth: antibiotic added to solution
From the text: In other studies, Itraconazole and Posaconazole were each added to the culture medium followed by the organism.

Row | Molecule | inhibitory effect on organism growth | inhibition of growth (antifungal agent added to the culture medium followed by the organism)
1 | Neomycin | no inhibitory effect | –
2 | Penicillin | no inhibitory effect | –
3 | O=C(O)c1cn(C2CC2)c2cc(N3CCNCC3)c(F)cc2c1=O [Ciprofloxacin] | no inhibitory effect | –
4 | CC[C@@H]([C@H](C)O)n1ncn(-c2ccc(N3CCN(c4ccc(OC[C@@H]5CO[C@@](Cn6cncn6)(c6ccc(F)cc6F)C5)cc4)CC3)cc2)c1=O [Posaconazole] | – | Neither antifungal agent was shown to inhibit growth
5 | CC1(C)S[C@@H]2[C@H](NC(=O)[C@H](N)c3ccccc3)C(=O)N2[C@H]1C(=O)O [Ampicillin] | no inhibitory effect | –
6 | CC[C@H]1OC(=O)[C@H](C)[C@@H](O[C@H]2C[C@@](C)(OC)[C@@H](O)[C@H](C)O2)[C@H](C)[C@@H](O[C@@H]2O[C@H](C)C[C@H](N(C)C)[C@H]2O)[C@](C)(O)C[C@@H](C)C(=O)[C@H](C)[C@@H](O)[C@]1(C)O [Erythromycin] | no inhibitory effect | –
7 | CN(C)[C@@H]1C(O)=C(C(N)=O)C(=O)[C@@]2(O)C(O)=C3C(=O)c4c(O)cccc4[C@@](C)(O)[C@H]3C[C@@H]12 [Tetracycline] | no inhibitory effect | –
